Source: patent publication US6440978B2, “Therapeutic agent for dermatitis” (Nippon Zoki Pharmaceutical Co., Ltd., priority 2000, dated 2002)

Experiments:
[1] = tested on: guinea pig eosinophils in the abdominal cavity; experiment: Suppression of LTB4-induced chemotaxis of guinea pig eosinophils (modified Boyden chamber); assay type: cell-based, Hartley male guinea pigs; conditions: Cavia porcellus, Eosinophil; chemotaxis induced by 10^-7 M LTB4, 37° C., 2 hours; 5 trials
Experimental: The suppressive effect of the compounds of the present invention on the leukotriene B4 or LTB4 induced chemotaxis of guinea pig eosinophils in the abdominal cavity were investigated using a modified Boyden chamber method. The guinea pig eosinophils in the abdominal cavity were prepared using Hartley male guinea pigs according to the conventional method. The chemotaxis of the eosinophils was induced by 10^−7 M of leukotriene B4 or LTB4 in 37° C. for 2 hours in the presence or absence of the test drug (the therapeutic agent for dermatitis of the present invention). After the chemotaxis cells were fixed and stained using the Giemsa stain, the number of chemotaxis cells was counted in visual fields of a microscope (×400). The experiments were repeated several times and the suppression rate of the test drug was calculated by the following formula:
Suppression Rate (%)=100×[(the number of chemotaxis eosinophils in control group)—(the number of chemotaxis eosinophils in the test drug group)]/[(the number of chemotaxis eosinophils in control group)—(the number of spontaneous chemotaxis eosinophils)]
The 50% inhibitory concentration (IC50) was calculated from the regression line obtained by the least square method based on the calculated suppression rates.

ear of a normal mouse = experiment: Influence of repeated application on the ear thickness of a normal mouse; assay type: in vivo; conditions: nine times in total, 2 hours after final application
Experimental: The therapeutic agent for dermatitis according to the present invention or the positive control (steroid preparation) was applied twice daily to the right ear of a normal mouse for a total of nine times and, 2 hours after the final application, the thickness of the ear was measured.

[2] = tested on: antigen-induced swelling reaction in a mouse ear; experiment: Suppressive action against antigen-induced swelling reaction in a mouse ear; assay type: in vivo, BALB/c female mice
Experimental: (§1) Seven week old BALB/c female (SPF) mice of were selected as subjects. According to a method of Tanaka, et al. (Allergy, 46, pages 42-48(1997)), egg white albumin (final concentration: 2 μg/mL) and aluminum hydroxide gel (final concentration: 10 mg/mL) were suspended in physiological saline and 0.5 mL of the suspension was administered to effect intraperitoneal sensitization on the first day of the test. On the 14th day of the test, an additional sensitization was carried out under the same conditions. Further, on the 28th day of the test, 25 μL of egg albumin (a 20 μg/mL solution in physiological saline) was intradermally administered to the right ear of a mouse to induce a swelling reaction.
This swelling reaction reached its peak at 4 hours after the challenge by the antigen. Even after 24 to 48 hours, a significant swelling reaction was noted as compared with the control in which antigen was merely challenged (not sensitized). […] On the contrary, the swelling from 24 to 48 hours after the challenge is thought to be the so-called delayed-type swelling reaction accompanied by infiltration of eosinophils, neutrophils and lymphocytes. In addition, a flare-up reaction having a peak at 24 hours after the challenge appeared on the ear of the antigen-induced site. Like swelling, flare-up is an important symptom of inflammation. Although the mechanism of the flare-up reaction is ambiguous, it may be a flare-up reaction of a delayed type in view of the time course of its expression. As such, this model animal in which the inflammation of both immediate and delayed types are induced is appropriate as a model animal for atopic dermatitis. In the following experiment, the effectiveness of the therapeutic agent for dermatitis according to the present invention was tested using the said model animal.
Each of a vehicle (control) and a test agent (containing the compound of the present invention or a positive control) was applied to the antigen-induced site (right auricle) of a mouse. A swelling reaction was induced in accordance with Example 2 at 2 hours before and 4 hours after the challenge. After the challenge, the thickness of the swelling induced ear was measured by a Dial Thickness Gauge (manufactured by Ozaki Seisakusho). The intensity of the reaction was expressed in terms of an increase in the auricle thickness by deducting the thickness (early value) measured before the challenge from the thickness of the swelling induced ear. The suppression rate of the test drug for ear swelling was calculated by the following formula:
Suppression Rate (%)=100 ×[(Ear Thickness Increase of Vehicle-Only-Control)—(Ear Thickness Increase of the Test Group)]/[(Ear Thickness Increase of the Vehicle-Only-Control)—(Ear Thickness Increase of the Challenge-Only-Group)]

[3] = tested on: eosinophil infiltration into the antigen-induced ear of a mouse; experiment: Suppressive action against eosinophil infiltration into the antigen-induced ear of a mouse (eosinophil peroxidase activity); assay type: in vivo, BALB/c female mice; conditions: 3% ointment; ear tissue 24 hours after challenge; compared with positive control
Experimental: as §1
The degree of eosinophil infiltration into the ear of a mouse was determined by measuring eosinophil peroxidase activity in a skin tissue homogenate and using the measurement as an index. […] This homogenate was centrifuged at 20,000 rpm for 20 minutes (using KR-20000T, Kubota) and the peroxidase activity in the supernatant fluid was measured using o-phenylenediamine dihydrochloride (Sigma) as a substrate. By measuring the absorbance of radiation having a wavelength of 492 nm, the resulting reaction curve was substantially linear relative to the dosage of the test drug and the degree of eosinophil infiltration was compared by defining the eosinophil infiltration of the control as 100%.

## Nc1ccc2c(=O)n(Cc3ccccc3)c(=O)n(-c3ccccc3)c2n1 [Compound 1, 7-amino-3-benzyl-1,2,3,4-tetrahydro-1-phenylpyrido[2,3-d]pyrimidin-2,4-dione]
[1]
  IC50: 1.9 ± 0.4 µM
other
  melting point: 261 to 262 °C
Ear of a normal mouse; 3% ointment applied twice daily
  Ear Thickness: 22.3 ± 0.2 × 0.01 mm
Ear of a normal mouse; 10% ointment applied twice daily
  Ear Thickness: 22.3 ± 0.5 × 0.01 mm
[2]; Table 1, 1% ointment
  Ear Thickness Increase at 1 hr after Challenge: 6.3 ± 1.4 × 0.01 mm
  Suppression Rate of ear thickness increase at 1 hr after Challenge: (106.1%)
  Ear Thickness Increase at 4 hr after Challenge: 18.0 ± 0.9 × 0.01 mm
  Suppression Rate of ear thickness increase at 4 hr after Challenge: (34.0%)
  Ear Thickness Increase at 8 hr after Challenge: 16.0 ± 0.4 × 0.01 mm
  Suppression Rate of ear thickness increase at 8 hr after Challenge: (26.0%)
  Ear Thickness Increase at 24 hr after Challenge: 9.3 ± 1.1 × 0.01 mm
  Suppression Rate of ear thickness increase at 24 hr after Challenge: (51.3%)
  Ear Thickness Increase at 48 hr after Challenge: 6.8 ± 1.0 × 0.01 mm
  Suppression Rate of ear thickness increase at 48 hr after Challenge: (47.8%)
[2]; Table 1, 3% ointment
  Ear Thickness Increase at 1 hr after Challenge: 5.3 ± 0.5 × 0.01 mm
  Suppression Rate of ear thickness increase at 1 hr after Challenge: (136.4%)
  Ear Thickness Increase at 4 hr after Challenge: 2.3 ± 0.9 × 0.01 mm
  Suppression Rate of ear thickness increase at 4 hr after Challenge: (18.4%)
  Ear Thickness Increase at 8 hr after Challenge: 15.8 ± 1.4 × 0.01 mm
  Suppression Rate of ear thickness increase at 8 hr after Challenge: (27.2%)
  Ear Thickness Increase at 24 hr after Challenge: 7.8 ± 0.9 × 0.01 mm
  Suppression Rate of ear thickness increase at 24 hr after Challenge: (61.3%)
  Ear Thickness Increase at 48 hr after Challenge: 5.3 ± 0.9 × 0.01 mm
  Suppression Rate of ear thickness increase at 48 hr after Challenge: (64.1%)
[2]; Table 2, 0.3% ointment
  Ear Thickness Increase at 4 hr after Challenge: 20.3 ± 2.4 × 0.01 mm
  Suppression Rate of ear thickness increase at 4 hr after Challenge: (18.7%)
  Ear Thickess Increase at 24 hr after Challenge: 13.5 ± 1.3 × 0.01 mm
  Suppression Rate of ear thickness increase at 24 hr after Challenge: (19.4%)
[2]; Table 2, 3% ointment
  Ear Thickness Increase at 4 hr after Challenge: 13.3 ± 0.3 × 0.01 mm
  Suppression Rate of ear thickness increase at 4 hr after Challenge: (49.8%)
  Ear Thickess Increase at 24 hr after Challenge: 9.3 ± 1.7 × 0.01 mm
  Suppression Rate of ear thickness increase at 24 hr after Challenge: (46.5%)
[3]
  eosinophil infiltration suppressing action: same degree as that of the steroid preparation of the positive control
